Reference: PMC5520492, “Inhibition of DNA2 nuclease as a therapeutic strategy targeting replication stress in cancer cells” (Oncogenesis, 2017)
Structures can show the parent of a compound that is named as a salt. Where two headings read alike, the source gives them in different places.

Tests used:
yDna2 = biological target: T1, yDna2 (Saccharomyces cerevisiae, UniProt P38859); test: High-throughput fluorescence nuclease assay with yDna2 (triply labeled (dT)30 ssDNA); type: biochemical, yeast; conditions: for inhibition at 33.33 µM: read-out: % Inhibition yDna2
T1 construct: made in house
Description: (§1) The screen entailed the use of oligonucleotide (dT)30 having a reporter fluorescent moiety, 6-FAM on the 5′ end, and the dark quenching group, Iowa Black FQ, on the 3′ end. In addition, a second dark quencher ZEN was placed between the 9th and 10th base (Figure 2a). The fluorescence emitted by 6-FAM is quenched by FRET, but it increases when DNA is degraded by Dna2. […] The inhibitory activity of the compounds was determined as a reduction in fluorescent signal compared with the dimethylsulfoxide (DMSO) only control. […] We screened ~50 000 chemical compounds from six different libraries (Supplementary Table S1) to identify chemical inhibitors of the Dna2 nuclease activity. […] The DNA2 nuclease domain is well conserved among eukaryotes, and therefore we reasoned that inhibitors of yDna2 will likely also work with the human counterpart.
(§2) Initial screen, it was performed with yDna2.[22] Then, the top candidate compounds were tested on hDNA2. Identical reaction conditions were used for assaying the nuclease activity of yDna2 and hDNA2. […] The reaction buffer was 20 mM HEPES/NaOH, pH 7.5, 60 mM KCl, 1 mM DTT, 100 μg/ml bovine serum albumin and 0.05% Triton X-100. The nuclease assay was initiated by adding MgCl2 (3 mM final concentration). T5 nuclease was assayed in the buffer (50 mM potassium acetate, pH 7.9, 20 mM Tris-acetate, 10 mM magnesium acetate and 1 mM DTT) provided by the vendor (NEB, Ipswich, MA, USA). The concentration of the fluorogenic substrate was 0.1 μM. The optimal amount of yDna2, hDNA2 and T5 nuclease was determined by utilizing the Kaleidagraph software (Reading, PA, USA) to fit the data according to Michaelis Menton Kinetics (V=V0+Vmax*x/(Km+x)). […] The Z’ value was calculated as previously described.[50] Cell proliferation was determined using 4,6-diamidino-2-phenylindole staining followed by high-throughput microscopy in a 384-well plate setup. In brief, cells were fixed with formaldehyde, washed and stained with 4,6-diamidino-2-phenylindole and the number of nuclei in each well counted by automated microscopy. The data were analyzed as described.[51]

T5 nuclease = biological target: T2, T5 nuclease (Escherichia phage T5, UniProt P06229); test: T5 nuclease counter-screen (fluorescence nuclease assay); type: biochemical; design: concentration or dose not given beside the values; conditions: re-screening against T5 nuclease
T2 construct: purchased NEB
Description: as §1, §2

[1] = screen at fixed inhibitor concentration (33.33 μM), 0.09 nM Dna2

T1 sequence (P38859 whole entry): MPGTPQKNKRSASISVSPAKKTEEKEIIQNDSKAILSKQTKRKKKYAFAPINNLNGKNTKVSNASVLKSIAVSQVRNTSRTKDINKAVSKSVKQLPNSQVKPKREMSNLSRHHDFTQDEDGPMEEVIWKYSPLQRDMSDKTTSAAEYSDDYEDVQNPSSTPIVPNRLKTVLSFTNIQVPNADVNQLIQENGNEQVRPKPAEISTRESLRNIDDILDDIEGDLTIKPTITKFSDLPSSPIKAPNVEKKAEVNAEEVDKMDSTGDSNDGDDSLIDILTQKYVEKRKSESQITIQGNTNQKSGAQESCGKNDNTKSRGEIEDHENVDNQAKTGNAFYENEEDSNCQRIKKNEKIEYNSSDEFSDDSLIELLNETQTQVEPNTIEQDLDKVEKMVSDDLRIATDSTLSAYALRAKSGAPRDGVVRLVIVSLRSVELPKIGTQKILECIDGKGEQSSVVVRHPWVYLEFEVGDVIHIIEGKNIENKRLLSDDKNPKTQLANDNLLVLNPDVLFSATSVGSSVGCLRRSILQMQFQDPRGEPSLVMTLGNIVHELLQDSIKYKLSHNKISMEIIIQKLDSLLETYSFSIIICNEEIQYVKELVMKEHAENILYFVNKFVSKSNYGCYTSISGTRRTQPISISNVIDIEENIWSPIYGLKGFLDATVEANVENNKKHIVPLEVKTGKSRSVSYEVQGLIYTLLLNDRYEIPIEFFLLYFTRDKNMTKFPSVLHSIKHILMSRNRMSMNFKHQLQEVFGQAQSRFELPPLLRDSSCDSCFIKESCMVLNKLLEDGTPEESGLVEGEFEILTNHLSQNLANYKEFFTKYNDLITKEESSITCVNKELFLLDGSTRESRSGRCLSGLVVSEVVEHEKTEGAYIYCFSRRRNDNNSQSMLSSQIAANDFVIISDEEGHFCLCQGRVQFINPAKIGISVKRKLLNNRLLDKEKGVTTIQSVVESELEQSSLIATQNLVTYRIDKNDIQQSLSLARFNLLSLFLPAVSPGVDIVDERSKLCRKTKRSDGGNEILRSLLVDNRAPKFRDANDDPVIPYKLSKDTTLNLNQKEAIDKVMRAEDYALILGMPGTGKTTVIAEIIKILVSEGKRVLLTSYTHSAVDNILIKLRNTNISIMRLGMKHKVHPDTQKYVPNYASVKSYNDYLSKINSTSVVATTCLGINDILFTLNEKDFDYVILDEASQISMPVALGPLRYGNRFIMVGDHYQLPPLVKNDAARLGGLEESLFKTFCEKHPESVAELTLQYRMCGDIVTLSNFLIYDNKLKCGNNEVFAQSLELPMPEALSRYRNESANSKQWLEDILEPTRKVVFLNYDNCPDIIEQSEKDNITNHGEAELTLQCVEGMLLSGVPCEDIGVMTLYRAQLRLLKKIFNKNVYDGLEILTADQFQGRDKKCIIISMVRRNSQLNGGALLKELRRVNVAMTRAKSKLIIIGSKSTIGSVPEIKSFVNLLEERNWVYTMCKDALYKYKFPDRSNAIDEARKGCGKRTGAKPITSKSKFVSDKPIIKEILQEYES
T2 sequence (P06229 whole entry): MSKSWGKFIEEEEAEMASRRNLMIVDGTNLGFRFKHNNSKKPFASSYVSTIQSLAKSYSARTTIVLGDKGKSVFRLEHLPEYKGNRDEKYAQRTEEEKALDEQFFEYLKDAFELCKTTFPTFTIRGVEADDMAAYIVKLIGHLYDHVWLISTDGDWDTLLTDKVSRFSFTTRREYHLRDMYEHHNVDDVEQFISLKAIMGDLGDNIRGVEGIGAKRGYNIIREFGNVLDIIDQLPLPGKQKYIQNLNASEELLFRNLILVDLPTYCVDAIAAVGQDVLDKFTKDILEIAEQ

| Compound | % Inhibition yDna2 (yDna2; [1]) [%] | % Inhibition T5 nuclease (T5 nuclease) [%] | inhibition at 33.33 µM (yDna2; [1]) [%] | inhibition at 33.33 µM (yDna2) [%] |
| --- | --- | --- | --- | --- |
| CCN(CC)Cc1cc2[nH]c3c4ccc(Cl)cc4ncc3c2cc1OC [NSC317605] | 100 | 99.2 | – | – |
| O=C(Nc1ccc(Nc2ccncc2)cc1)c1ccc(Nc2ccnc3ccc([N+](=O)[O-])cc23)cc1 [NSC146771] | 76.5 | 100 | – | – |
| COc1cccc2c1C(=O)c1c(O)c3c(c(O)c1C2=O)C[C@@](O)(C(=O)CO)C[C@@H]3O[C@H]1C[C@H](N)[C@H](O)[C@H](C)O1 [Doxorubicin hydrochloride, reference compound] | – | 100 | 100 | – |
| O=C1c2c(O)ccc(O)c2C(=O)c2c(NCCNCCO)ccc(NCCNCCO)c21 [Mitoxantrone dihydrochloride, reference compound] | – | 100 | 100 | – |
| CC(=O)[O-].Cc1c2cc[n+](CCN3CCCCC3)cc2c(C)c2c1[nH]c1ccc(O)cc12 [NSC311153] | 100 | 100 | – | – |
| NC(N)=NCCCS(=O)(=O)Nc1ccc(Nc2c3ccccc3nc3cc([N+](=O)[O-])ccc23)cc1 [NSC177365] | 83.3 | 100 | – | – |
| COc1ccc2nc(C)cc(NCCCCCCCCCNc3cc(C)nc4ccc(OC)cc34)c2c1 [NSC10010] | 90.3 | 93.7 | – | – |
| [Mo] [NSC622124] | 93.4 | 96.1 | – | – |
| CN1CCN(c2ccc3nc(-c4c(N)c5c(F)cccc5[nH]c4=O)[nH]c3c2)CC1 [(Dovitinib) CHIR258, Dovitinib, reference compound] | – | 60.2 | 54 | – |
| Cn1ccc(=Nc2ccc(NC(=O)c3ccc(N=c4ccn(C)c5ccc([N+](=O)[O-])cc45)cc3)cc2)cc1 [NSC260594] | 94.8 | 100 | – | – |
| Cc1cc2nc3ccc(N(C)C)cc3[s+]c2cc1N [NSC36758] | – | 83.9 | 100 | – |
| O=C(Nc1ccc(C2=NCCN2)cc1)c1ccc(C(=O)Nc2ccc(C3=NCCN3)cc2)c(Cl)c1 [NSC60339] | – | 100 | – | 100 |
| Deqalinium dichloride [reference compound] | 100 | 100 | – | – |
| ClN=C1C=CC=CC1=NCl [NSC344494] | 51.4 | 97.9 | – | – |
| COc1ccc2c(C)nc(NC3=NC(C)(C)CC(C)=N3)nc2c1 [Compound 5309857] | 59.9 | 77.3 | – | – |
| CO[C@H]1C[C@@H]2\C=C(C)/C=C/C=C\C(=O)N[C@H](c3ccccc3)C/C=C/CC[C@H](O)CC(=O)C2=C1O [NSC343256] | 71 | 72 | – | – |

| Compound | % Inhibition yDna2 (yDna2; [1]) [%] | % Inhibition T5 nuclease (T5 nuclease) [%] | inhibition at 33.33 µM (yDna2; [1]) [%] | inhibition at 33.33 µM (yDna2) [%] |
| --- | --- | --- | --- | --- |
| COc1cc(-c2ccc(N=Nc3ccc4c(S(=O)(=O)[O-])cc(S(=O)(=O)[O-])c(N)c4c3O)c(OC)c2)ccc1N=Nc1ccc2c(S(=O)(=O)[O-])cc(S(=O)(=O)[O-])c(N)c2c1O.[Na+].[Na+].[Na+].[Na+] [Chicago Sky blue 6B, reference compound] | 69 | 100 | – | – |
| COc1cccc2c1C(=O)c1c(O)c3c(c(O)c1C2=O)CC(O)(/C(C)=N/O)CC3OC1CC(N)C(O)C(C)O1 (stereo not shown) [NSC143491] | 100 | 97.9 | – | – |
| c1ccc2c(NCCCCCCCCNc3c4ccccc4nc4ccccc34)c3ccccc3nc2c1 [NSC219734] | 85 | 100 | – | – |
| CCN(CC)CCCC(C)Nc1c2ccc(Cl)cc2nc2ccc(OC)cc12 (stereo not shown) [Quinacrine dihydrochloride, reference compound] | – | 55.4 | 67.8 | – |
| Cc1cc(N)c2ccccc2[n+]1CCCCCCCCCC[n+]1c(C)cc(N)c2ccccc21 [NSC166454] | – | 88.9 | 55.4 | – |
| CCCCC(CC)CNC(=N)NC(=N)NCCCCCCNC(=N)NC(=N)NCC(CC)CCCC (stereo not shown) [Alexidine dihydrochloride, reference compound] | – | 100 | 63.5 | – |
| Cl.O=C1c2cccc(NCCCNCCO)c2C(=O)c2cccc(NCCCNCCO)c21 [NSC363998] | 99 | 74.5 | – | – |
| COc1cccc2c1C(=O)c1c(O)c3c(c(O)c1C2=O)C[C@@](O)(C(C)=O)C[C@@H]3O[C@H]1C[C@H](N)[C@H](O)[C@H](C)O1 [Daunorubicin hydrochloride, reference compound] | – | 98.1 | – | 100 |
| Nc1ccc(Cn2ccc3c4c(N)nc(N)nc4ccc32)cc1 [NSC309401] | 100 | 100 | – | – |
| Cc1cc(N)c2cc(NC(=O)/C=C/c3ccccc3Cl)ccc2n1 [NSC33353] | 100 | 100 | – | – |
| CCN(CC)CCCC(C)Nc1nc(C)cc(Nc2ccc3nc(C)cc(N)c3c2)n1 (stereo not shown) [NSC23766, reference compound] | 100 | 94.7 | – | – |
| Cc1cc2c(c3oc(C4(C)OC4C4OC4C)cc(=O)c13)C(=O)c1c(O)c(C3CC(C)(N(C)C)C(O)C(C)O3)cc(C3CC(N(C)C)C(O)C(C)O3)c1C2=O (stereo not shown) [NSC70929] | 100 | 100 | – | – |
| COc1ccc2c(NCCCCCCNc3c4ccccc4nc4cc(OC)ccc34)c3ccccc3nc2c1 [NSC260610] | – | 100 | 100 | – |
| CC[N+](C)(CC)CCC[n+]1c(-c2ccccc2)c2cc(N)ccc2c2ccc(N)cc21.[I-].[I-] [Propidium Iodide, reference compound] | 100 | 100 | – | – |
| Cc1cc(NCCCCCCCNc2cc(C)nc3cc(N)ccc23)c2ccc(N)cc2n1 [NSC273829] | – | 56.5 | 74.4 | – |
| O=C(Nc1ccc(C2=NCCN2)cc1)c1ccc(Cl)c(C(=O)Nc2ccc(C3=NCCN3)cc2)c1 [NSC67436] | 100 | 100 | – | – |
